Measurements as given in patent US20150080380A1, “Therapeutic Uses” (GLAXOSMITHKLINE INTELLECTUAL PROPERTY DEVELOPMENT LIMITED, priority 2012, published 2015).

Legend:
[1] = test system: remyelination in cuprizone/rapamycin-induced demyelination; test: Mouse cuprizone/rapamycin-induced demyelination model (Black-gold II staining); format: in vivo, C57BL/6 mice; conditions: 30 mg/kg orally b.i.d. 9 days, n=7, P<0.05
Description: The ability of Example compound 2 to enhance in vivo remyelination was determined with the mouse cuprizone/rapamycin-induced demyelination model.
The cuprizone plus rapamycin model was conducted with the protocol as follows: rapamycin was dissolved in 100% ethanol and stored at −20° C. until use. Immediately before injection, the rapamycin was diluted in vehicle solution to get a final concentration in 5% PEG-400, 5% Tween 80, and 4% ethanol. The C57BL/6 mice at age of 8 weeks were fed with powder mouse food mixed freshly with 0.2% cuprizone (w/w) and received daily intraperitoneal injection of rapamycin (10 mg/kg body weight) for 5 weeks to induce demyelination, then animals were allowed to recover (removal of cuprizone from the diet and rapamycin injection) and administrated with Example compound 2, at 30 mg/kg body weight orally, b.i.d. for an additional 9 days prior to sacrifice. The brain samples were collected for pathologic analysis. […]
Mice were deeply anesthetized and quickly perfused with 0.9% saline via the left cardiac ventricle to drain out blood. […] The sections were monitored to determine the extent of staining. […]
Image-Pro 6.3 software (Media Cybernetics, USA) was used for subsequent quantitative evaluation. […] For measurement of mean density, areas and IOD in central corpus callosum or cortex were calculated after all digital images were set under the same colour range. […]

H3R = molecular target: T1, H3R (Rattus norvegicus, UniProt Q9QYN8); test: Histamine H3R functional inverse agonist assay with OPCs (cAMP assay); format: cell-based; conditions: 30 nM to 3 µM compound, Forskolin 3 µM, absence of H3R agonist
T1 construct: endogenous in cells; host or cells: oligodendrocyte precursor cells (OPCs), untransfected
Description: Histamine receptor 3 (H3R), expressed on cell surface, is negatively coupled to adenylyl cyclase, which stimulates the formation of cyclic AMP (cAMP). In the absence of histamine, the constitutively active H3R would inhibit intracellular level of cAMP. Inverse agonists of H3R, which block constitutive activity of H3R, thus would raise the cAMP level. The ability of Example compound 2 to inhibit constitutive activity of H3R was determined in a cellular cAMP assay.
For each compound being assayed, OPCs were seeded in PO coated 96-well plate at a density of 20000 cells/well, and cultured in BDM with bFGF (10 ng/ml Petrotech) and PDGF (10 ng/ml Petrotech) for 24 hours. The cells were first treated with different concentration of example compound (30 nM to […]) for 30 minutes. Then the cells were stimulated with Forskolin ([…], Sigma) in the presence of the example compound for 15 minutes. The cAMP concentrations were measured by the cAMP Chemiluminescent Immunoassay Kit (Invitrogen, Cat. No. C10557). The cells were lysed with lysis buffer (60 μL, Invitrogen Kit reagent) at 37° C. for 30 minutes. […] Chemiluminescence signal was measured in a SpectraMax M5 Multi-Mode Microplate Readers (Molecular Devices) for 1 second per well.

T1 sequence (Q9QYN8 whole entry): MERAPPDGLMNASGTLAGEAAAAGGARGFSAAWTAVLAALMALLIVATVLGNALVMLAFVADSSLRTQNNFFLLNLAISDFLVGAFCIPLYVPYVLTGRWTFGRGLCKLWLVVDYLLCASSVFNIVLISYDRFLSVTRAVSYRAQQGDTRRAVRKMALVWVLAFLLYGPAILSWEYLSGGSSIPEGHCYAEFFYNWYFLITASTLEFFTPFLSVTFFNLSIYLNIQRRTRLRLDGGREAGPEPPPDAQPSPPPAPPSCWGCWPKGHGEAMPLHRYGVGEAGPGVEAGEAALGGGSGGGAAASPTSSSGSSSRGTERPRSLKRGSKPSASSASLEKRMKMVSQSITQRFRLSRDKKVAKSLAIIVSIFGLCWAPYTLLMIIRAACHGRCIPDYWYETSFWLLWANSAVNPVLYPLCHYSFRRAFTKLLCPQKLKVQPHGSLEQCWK

## c1cc2c(cc1-c1noc(CC3CCN(C4CCC4)CC3)n1)OCO2 [Example compound 2, 3-(benzo[d][1,3]dioxol-5-yl)-5-((1-cyclobutylpiperidin-4-yl)methyl)-1,2,4-oxadiazole]
[1]; vehicle 14.65%
  mean intensity of Black-gold II staining, forebrain corpus callosum: 27.68±5.44%
[1]; vehicle 40.79%
  mean intensity of Black-gold II staining, forebrain cortex: 60.05±6.28%
H3R
  Forskolin-stimulated cAMP level in primary OPCs: increased
